Experimental data reported in ChEMBL document CHEMBL1201862, “PubChem BioAssay data set” (2004).
Calls of active or inactive are those of the source.

Columns and labels:
[1] = molecular target: Polyadenylate-binding protein 1 (Homo sapiens, UniProt P11940); assay: blockers of PABP interaction with poly(A) – biochemical, fluorescence polarization, […] (AID 2014)
[2] = molecular target: Eukaryotic translation initiation factor 4H (Homo sapiens, UniProt Q15056); assay: eIF4H binding inhibition – biochemical, uHTS, fluorescence polarization, translation initiation inhibitor project, primary screen (AID 2012)
[3] = growth inhibition of PfATP4-mutant resistant parasites – NITD609-resistant line, SYBR Green, dry powder, dose response (AID 1159571); format: functional, cell-based;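 note: parasites synchronized at ring stage by sorbitol before testing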
[4] = toxicity to human HepG2 hepatoma cells – cell-based, plate reader, dry powder samples, cytotoxicity control, dose response (AID 1159569); format: functional;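 note: inhibitor potency with signal falling toward the positive control level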
[5] = Dd2 malaria parasite growth inhibition potency – SYBR Green, dry powder samples, dose response (AID 1159566); format: functional, cell-based;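 note: potency for growth inhibition with lower SYBR green DNA signal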
[6] = toxicity to human hepatoma HepG2 cells – cell-based, cherry-picked samples, cytotoxicity control, dose response (AID 1159577); format: functional
[7] = P. falciparum Dd2 growth inhibitors, dose response, SYBR Green, cherry-picked samples (AID 1159567); format: functional, cell-based
[8] = growth inhibition of yeast DHODH-expressing 3D7 parasites – SYBR Green, dry powder samples, dose response (AID 1159570); format: functional, cell-based;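 note: parasite growth measured after 72 hours of compound exposure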
cells = format: functional, cell-based
[9] = alpha-synuclein stem-loop luciferase translation blockers – H4 neuroglioma cells, luminescence, confirmation (AID 1988); format: functional, cell-based
[10] = Luminescence-based counterscreen assay for KLF5 inhibitors: dose response cell-based high throughput screening assay to identify cytotoxic compounds using the IEC-6 intestinal epithelial cell line. [Related pubchem assays: 1700 (Primary screen.), 1834 (Confirmation screen.), 1858 (Summary AID.), 1905 (Counterscreen.)]; format: functional
[11] = luciferase reporter signal suppression in cells – H4 neuroglioma cells, luminescence, dose response (AID 1990); format: functional, cell-based
[12] = luciferase reporter signal reduction – luminescence, H4-C neuroglioblastoma cells, dose response (AID 2458); format: functional, cell-based;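 note: H4 neuroglioblastoma cells stably carrying a luciferase reporter gene fusion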
[13] = alpha-synuclein stem-loop translation blockers – luminescence, H4 neuroglioblastoma cells, dose confirmation, confirmation (AID 2454); format: functional, cell-based;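 note: H4 neuroglioblastoma cells carrying an alpha-synuclein 5'UTR luciferase reporter; potency for inhibition of the luciferase signal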
H4 = assay: Luminescence Cell-Based Dose Response HTS to Identify Activators of 5'UTR Stem-Loop Driven Prion Protein mRNA Translation in H4 Neuroglioblastoma Cells. [Related pubchem assays: 1829 (Project Summary), 1814 (Primary HTS)]; format: functional; settings: Homo sapiens
[14] = Luminescence Cell-Based Dose Response to Identify Activators of 5'UTR Stem-Loop Driven Prion Protein mRNA Translation in H4-C Neuroglioblastoma Cells. [Related pubchem assays: 1829 (Project Summary), 1814 (Primary HTS)]; format: functional
[15] = Luminescence Cell-Based Dose Response to Identify Activators of Luciferase Translation or Activity in H4-C Neuroglioblastoma Cells. [Related pubchem assays: 1829 (Project Summary), 1814 (Primary HTS)]; format: functional
[16] = Luminescence Cell-Based Dose Response HTS to Identify Activators of Luciferase Translation or Activity in H4 […] Cells. [Related pubchem assays: 1829 (Project Summary), 1814 (Primary HTS)]; format: functional
[17] = Luminescence Cell-Based Dose Confirmation to Identify Activators of 5'UTR Stem-Loop Driven Alpha-Synuclein mRNA Translation in H4 Neuroglioblastoma Cells. [Related pubchem assays: 1829 (Project Summary), 1814 (Primary HTS)]; format: functional
[18] = molecular target: T1, Voltage-gated N-type calcium channel alpha-1B subunit/Amyloid beta A4 precursor protein-binding family A member 1 (Homo sapiens, UniProt Q00975+Q02410); format: protein assay
[19] = molecular target: T1, Voltage-gated N-type calcium channel alpha-1B subunit/Amyloid beta A4 precursor protein-binding family A member 1; format: protein assay; remark: listed apart in the source
[20] = toxicity toward HepG2 liver cells – cell-based, plate reader, cherry-pick, antagonist series, cytotoxicity control, dose response (AID 743416); format: functional
[21] = Luminescence Cell-Based Dose Response HTS to Identify Inhibitors of 5'UTR Stem-Loop Driven Prion Protein mRNA Translation in H4 Neuroglioblastoma Cells. [Related pubchem assays: 1827 (Project Summary), 1813 (Primary HTS)]; format: functional
[22] = blockers of bursicon-stimulated LGR2 cAMP reporter – cell-based, HEK293, CRE-luciferase reporter, cherry pick, set 2, dose response (AID 743343); format: functional;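 note: transfected cells were stimulated with diluted bursicon conditioned medium after compound addition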
[23] = blockade of melanocortin 4 receptor signaling – cell-based, plate reader, cherry pick, counter-screen for LGR2 antagonist project, dose response (AID 743444); format: functional;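 note: transfected HEK 293 cells stimulated with alpha-MSH peptide; potency of inhibitors of the alpha-MSH evoked signal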
[24] = A549 cell cytotoxicity, dose response, cytotoxicity control, plate reader, cherry-pick, antagonist series (AID 743412); format: functional, cell-based
Estrogen receptor beta = Estrogen receptor beta (Homo sapiens, UniProt Q92731);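 note: recombinant ER-beta bound to coactivator SRC1 peptide in presence of estradiol agonist; inhibitors block coactivator peptide binding and lower the FRET signal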
[25] = molecular target: Peroxisome proliferator-activated receptor gamma/Nuclear receptor coactivator 3 (Homo sapiens, UniProt P37231); format: functional;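 note: agonist potency for raising coactivator recruitment to the receptor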
[26] = molecular target: Peroxisome proliferator-activated receptor gamma/Nuclear receptor coactivator 2 (Homo sapiens, UniProt P37231); format: functional;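 note: agonist potency for raising coactivator recruitment to the receptor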
[27] = molecular target: Peroxisome proliferator-activated receptor gamma/Nuclear receptor coactivator 1 (Homo sapiens, UniProt P37231); format: functional;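 note: agonist potency as compounds enhance coactivator SRC-1 recruitment to PPARgamma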
HT-1080 = assay: HT1080 cell viability loss – fluorescence readout (AID 620); format: functional, cell-based; settings: Homo sapiens
[28] = Luminescence Cell-Based Dose Retest to Confirm Inhibitors of Cancer Stem Cells. [Related pubchem assays (depositor defined):AID2717, AID2721]; format: functional; settings: Homo sapiens
[29] = molecular target: Luciferin 4-monooxygenase (Photinus pyralis, UniProt P08659); assay: Counter Screen for Luciferase-based Assay Positives. [Related pubchem assays: 620, 618, 411 ]
Luciferin 4-monooxygenase, sequence (P08659 whole entry): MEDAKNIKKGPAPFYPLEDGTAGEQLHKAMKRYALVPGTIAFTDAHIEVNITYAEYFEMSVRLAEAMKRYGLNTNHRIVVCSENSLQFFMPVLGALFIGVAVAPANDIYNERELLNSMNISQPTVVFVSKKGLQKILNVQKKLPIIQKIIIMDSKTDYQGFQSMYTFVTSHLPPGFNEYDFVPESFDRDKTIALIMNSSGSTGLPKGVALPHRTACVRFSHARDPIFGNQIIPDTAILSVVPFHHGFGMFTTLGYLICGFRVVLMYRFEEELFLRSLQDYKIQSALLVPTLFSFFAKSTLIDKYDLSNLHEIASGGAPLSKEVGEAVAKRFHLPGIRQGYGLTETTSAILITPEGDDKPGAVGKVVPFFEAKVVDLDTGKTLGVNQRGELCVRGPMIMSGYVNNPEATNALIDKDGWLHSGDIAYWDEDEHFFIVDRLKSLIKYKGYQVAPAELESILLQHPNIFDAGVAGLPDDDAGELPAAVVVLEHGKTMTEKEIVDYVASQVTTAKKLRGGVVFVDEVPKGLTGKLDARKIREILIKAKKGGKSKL

T1 sequence (Q00975 whole entry): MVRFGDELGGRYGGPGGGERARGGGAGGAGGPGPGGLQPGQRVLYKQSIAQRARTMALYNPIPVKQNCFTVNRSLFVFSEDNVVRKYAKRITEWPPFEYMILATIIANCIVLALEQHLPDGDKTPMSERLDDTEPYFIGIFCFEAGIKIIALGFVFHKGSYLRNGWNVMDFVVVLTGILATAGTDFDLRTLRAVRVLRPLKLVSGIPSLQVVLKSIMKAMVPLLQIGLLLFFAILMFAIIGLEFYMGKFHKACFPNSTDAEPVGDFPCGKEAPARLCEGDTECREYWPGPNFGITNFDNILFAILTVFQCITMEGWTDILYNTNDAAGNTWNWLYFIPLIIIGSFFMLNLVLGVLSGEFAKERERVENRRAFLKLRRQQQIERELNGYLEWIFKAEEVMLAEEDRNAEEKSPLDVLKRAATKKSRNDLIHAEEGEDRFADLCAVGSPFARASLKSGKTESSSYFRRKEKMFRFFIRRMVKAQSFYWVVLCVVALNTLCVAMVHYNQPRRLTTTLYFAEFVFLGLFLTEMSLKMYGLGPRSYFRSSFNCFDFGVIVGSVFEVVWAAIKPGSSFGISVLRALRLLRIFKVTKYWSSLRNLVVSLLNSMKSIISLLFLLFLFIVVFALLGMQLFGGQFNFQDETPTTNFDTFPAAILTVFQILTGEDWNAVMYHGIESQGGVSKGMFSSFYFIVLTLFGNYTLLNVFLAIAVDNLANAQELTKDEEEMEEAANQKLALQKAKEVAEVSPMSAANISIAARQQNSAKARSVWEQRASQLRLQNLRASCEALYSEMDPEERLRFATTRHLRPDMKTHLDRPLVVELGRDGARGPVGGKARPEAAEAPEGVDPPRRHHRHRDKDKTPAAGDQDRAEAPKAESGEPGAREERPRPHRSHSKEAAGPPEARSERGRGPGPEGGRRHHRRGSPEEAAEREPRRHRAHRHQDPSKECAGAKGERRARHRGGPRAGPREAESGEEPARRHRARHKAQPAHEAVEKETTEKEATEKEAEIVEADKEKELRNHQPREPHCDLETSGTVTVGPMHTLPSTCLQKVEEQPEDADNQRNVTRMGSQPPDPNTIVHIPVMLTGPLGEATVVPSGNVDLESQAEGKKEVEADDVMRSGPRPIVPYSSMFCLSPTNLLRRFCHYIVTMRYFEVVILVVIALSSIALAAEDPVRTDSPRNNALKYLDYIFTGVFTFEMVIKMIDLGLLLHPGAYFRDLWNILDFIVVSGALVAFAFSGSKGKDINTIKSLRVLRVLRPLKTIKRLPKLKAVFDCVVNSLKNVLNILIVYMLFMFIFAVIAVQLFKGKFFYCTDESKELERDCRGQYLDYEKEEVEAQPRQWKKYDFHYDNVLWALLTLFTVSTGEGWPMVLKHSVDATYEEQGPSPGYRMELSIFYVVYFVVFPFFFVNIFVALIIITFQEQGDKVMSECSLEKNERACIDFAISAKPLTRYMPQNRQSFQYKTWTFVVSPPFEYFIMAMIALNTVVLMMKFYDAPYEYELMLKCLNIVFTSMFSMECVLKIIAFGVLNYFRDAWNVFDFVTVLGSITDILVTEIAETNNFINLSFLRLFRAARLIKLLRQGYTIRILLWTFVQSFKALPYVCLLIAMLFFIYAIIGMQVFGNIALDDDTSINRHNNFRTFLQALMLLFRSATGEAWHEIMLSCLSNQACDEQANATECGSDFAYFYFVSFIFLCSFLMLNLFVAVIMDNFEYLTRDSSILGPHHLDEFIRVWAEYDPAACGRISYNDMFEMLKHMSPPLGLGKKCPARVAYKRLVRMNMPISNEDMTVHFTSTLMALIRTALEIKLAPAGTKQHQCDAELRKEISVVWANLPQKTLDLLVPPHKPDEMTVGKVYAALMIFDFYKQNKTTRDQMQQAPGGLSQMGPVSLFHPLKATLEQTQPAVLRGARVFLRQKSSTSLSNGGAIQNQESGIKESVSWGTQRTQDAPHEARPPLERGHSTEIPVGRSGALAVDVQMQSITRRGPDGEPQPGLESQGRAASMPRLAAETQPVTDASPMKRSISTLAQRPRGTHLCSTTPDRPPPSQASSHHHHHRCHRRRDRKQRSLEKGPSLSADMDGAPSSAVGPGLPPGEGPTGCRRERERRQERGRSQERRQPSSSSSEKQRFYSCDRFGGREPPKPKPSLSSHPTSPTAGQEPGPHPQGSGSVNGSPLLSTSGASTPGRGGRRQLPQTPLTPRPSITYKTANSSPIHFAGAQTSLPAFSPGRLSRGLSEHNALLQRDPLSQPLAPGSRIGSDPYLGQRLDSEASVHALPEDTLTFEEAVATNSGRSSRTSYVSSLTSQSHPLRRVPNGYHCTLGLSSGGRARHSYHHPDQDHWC
T1 sequence (Q02410 whole entry): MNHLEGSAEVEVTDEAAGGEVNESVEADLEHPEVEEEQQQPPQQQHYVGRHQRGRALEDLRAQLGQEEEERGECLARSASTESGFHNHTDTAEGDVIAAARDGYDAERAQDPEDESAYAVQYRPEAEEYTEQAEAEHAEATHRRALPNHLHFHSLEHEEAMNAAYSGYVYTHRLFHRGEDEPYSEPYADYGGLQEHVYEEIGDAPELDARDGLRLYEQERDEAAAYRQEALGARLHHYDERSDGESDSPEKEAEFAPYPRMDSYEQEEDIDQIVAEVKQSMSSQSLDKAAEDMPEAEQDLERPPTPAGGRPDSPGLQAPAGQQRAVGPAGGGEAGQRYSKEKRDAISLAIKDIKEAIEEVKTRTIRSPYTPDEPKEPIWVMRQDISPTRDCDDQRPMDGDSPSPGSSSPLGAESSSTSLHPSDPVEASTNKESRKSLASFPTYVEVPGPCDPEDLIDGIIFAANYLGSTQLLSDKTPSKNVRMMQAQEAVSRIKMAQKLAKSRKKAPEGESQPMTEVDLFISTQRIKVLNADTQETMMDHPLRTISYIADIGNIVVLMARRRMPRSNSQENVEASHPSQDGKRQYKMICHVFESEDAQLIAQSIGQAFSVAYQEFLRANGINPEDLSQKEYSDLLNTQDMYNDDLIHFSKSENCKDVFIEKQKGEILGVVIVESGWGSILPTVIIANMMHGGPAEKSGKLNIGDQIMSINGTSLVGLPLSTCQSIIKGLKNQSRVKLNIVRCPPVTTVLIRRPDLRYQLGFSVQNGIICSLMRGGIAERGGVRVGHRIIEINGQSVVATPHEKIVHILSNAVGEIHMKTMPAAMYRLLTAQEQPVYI
Estrogen receptor beta, sequence (Q92731 whole entry): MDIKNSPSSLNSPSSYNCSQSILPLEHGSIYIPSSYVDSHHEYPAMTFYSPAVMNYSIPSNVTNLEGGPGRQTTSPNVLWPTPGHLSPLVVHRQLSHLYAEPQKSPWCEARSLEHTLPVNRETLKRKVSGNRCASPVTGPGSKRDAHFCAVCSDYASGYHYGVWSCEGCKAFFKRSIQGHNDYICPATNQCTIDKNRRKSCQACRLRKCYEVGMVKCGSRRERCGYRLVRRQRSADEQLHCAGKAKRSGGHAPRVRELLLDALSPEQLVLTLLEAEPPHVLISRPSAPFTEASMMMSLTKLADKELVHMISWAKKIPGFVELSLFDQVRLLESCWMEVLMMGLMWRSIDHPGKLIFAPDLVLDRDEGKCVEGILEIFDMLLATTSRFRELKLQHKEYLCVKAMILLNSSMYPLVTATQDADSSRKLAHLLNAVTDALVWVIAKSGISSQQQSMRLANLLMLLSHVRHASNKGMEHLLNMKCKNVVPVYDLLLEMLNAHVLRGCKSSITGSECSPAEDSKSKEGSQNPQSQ
Polyadenylate-binding protein 1, sequence (P11940 whole entry): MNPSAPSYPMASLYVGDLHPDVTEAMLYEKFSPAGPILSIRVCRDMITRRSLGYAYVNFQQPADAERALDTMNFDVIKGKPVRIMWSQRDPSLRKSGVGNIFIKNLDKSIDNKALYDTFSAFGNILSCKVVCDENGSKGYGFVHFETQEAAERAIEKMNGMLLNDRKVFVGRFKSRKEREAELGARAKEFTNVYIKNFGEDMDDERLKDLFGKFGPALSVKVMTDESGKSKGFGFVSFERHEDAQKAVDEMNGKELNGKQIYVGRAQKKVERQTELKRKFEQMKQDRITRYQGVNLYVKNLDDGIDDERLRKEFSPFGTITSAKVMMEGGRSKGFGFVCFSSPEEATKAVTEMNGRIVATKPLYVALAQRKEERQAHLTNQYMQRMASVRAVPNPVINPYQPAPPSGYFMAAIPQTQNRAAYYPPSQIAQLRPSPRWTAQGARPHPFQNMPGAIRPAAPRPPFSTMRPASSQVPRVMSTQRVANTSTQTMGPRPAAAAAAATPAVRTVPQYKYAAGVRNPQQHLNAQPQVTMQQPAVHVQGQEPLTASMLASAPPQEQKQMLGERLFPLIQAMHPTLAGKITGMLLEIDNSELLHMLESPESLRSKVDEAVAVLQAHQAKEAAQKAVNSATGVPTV

## CC(C)(C#CCCCCC#CC(C)(C)[N+](C)(C)C)[N+](C)(C)C
[1]
  IC50: 7.97 µM (active)
[2]
  IC50: > 100 µM (inactive)

## c1ccc(CN2C[C@@H]3N[C@H](C2)[C@@H]3c2ccc(-c3ccncc3)cc2)cc1
[3]
  AC50: 1.66 µM (active)
[4]
  AC50: 18 µM (active)
[5]
  AC50: 1.54 µM (active)
[6]
  AC50: > 39 µM (inactive)
[7]
  AC50: 2.35 µM (active)
[8]
  AC50: 3.96 µM (active)

## Cc1ccc2nc(NC(=O)CCCc3nc4ccccc4s3)sc2c1
cells
  EC50: > 12 µM (not active)
[9]
  EC50: < 0.1 µM (active)
[10]
  IC50: > 39.8 µM (not active)
[11]
  EC50: 0.499 µM (active)
[12]
  EC50: 1.6 µM (active)
[13]
  EC50: 1.54 µM (active)

## Nc1c(-c2cccc(Cl)c2)cnc2c(-c3ccccc3)cnn12
H4
  EC50: 0.785 µM (active)
[14]
  EC50: 0.478 µM (active)
[15]
  EC50: 1.15 µM (active)
[16]
  EC50: < 0.1 µM (inconclusive)
[17]
  EC50: 0.321 µM (active)

## COc1ccc2nc(O)c(CN(C3CCCCC3)C(c3nnnn3Cc3ccco3)C(C)C)cc2c1 (stereo unspecified)
[18]
  IC50: 3.17 µM (active)
[19]
  IC50: 25.9 µM (active)

## COC(=O)c1c(N)sc(C(=O)NCCc2ccccc2)c1C
[20]
  AC50: > 52 µM (inactive)
[21]
  EC50: 0.394 µM (active)
[9]
  EC50: 0.213 µM (active)
[22]
  AC50: 1.44 µM (active)
[10]
  IC50: > 39.8 µM (not active)
[11]
  EC50: 3.07 µM (active)
[23]
  AC50: 1.94 µM (active)
[24]
  AC50: > 52 µM (inactive)

## C[C@H]1CN([C@@H](C)CO)C(=O)c2c(c3ccccc3n2C)-c2ccccc2CO[C@@H]1CN(C)Cc1ccc(Cl)c(Cl)c1
[3]
  AC50: 1.87 µM (active)
[4]
  AC50: 18.4 µM (active)
[5]
  AC50: 1.43 µM (active)
[7]
  AC50: 1.94 µM (active)
[8]
  AC50: 3.11 µM (active)

## O=C(O)CC(Cn1nnnc1S)c1ccccc1 (stereo unspecified)
Estrogen receptor beta
  IC50: > 50 µM (not active)

## O=C(CSc1nnnn1Cc1ccccc1)NCC(=O)c1ccccc1
[25]
  EC50: 84.7 µM (not active)
[26]
  EC50: 45.9 µM (not active)
[27]
  EC50: > 79.4 µM (not active)

## CCCCCCOc1ccc(CN2CCN(CCO)CC2)cc1
HT-1080
  EC50: > 50 µM (not active)
[28]
  AC50: < 0.16 µM (active)
[29]
  EC50: 1.74 µM (active)
